For data set [1], the target named is Integrin alpha-1 (Homo sapiens) (UniProt P56199). The experiment in a line: Inhibition of human alpha1 integrin expressed in CHO cells binding to collagen I at 50 uM after 2 hrs by cell-adhesion-based WST-1 assay. On the technique in general: Tetrazolium dyes change colour on reduction, which living cells bring about.
Data set [2] shares this target. The data set can be described thus: Inhibition of human alpha1 integrin expressed in CHO cells binding to collagen I at 100 uM after 2 hrs by cell-adhesion-based WST-1 assay relative to control.
Data set [3] relates to CHO. The experiment in a line: Cytotoxicity against CHO cells assessed as release of lactate dehydrogenase by resazurin assay. It counts as cell-based, Cricetulus griseus. The settings on record: chinese hamster. A general note: Resazurin is reduced to fluorescent resorufin, in cell work by metabolically active cells.
Data set [4] deals with CHO. The data set can be described thus: Selectivity ratio of EC50 for human alpha2 integrin expressed in CHO cells binding to collagen IV to EC50 for human alpha1 integrin expressed in CHO cells binding to collagen I. It counts as cell-based.
Data set [5] has as its target T1, Integrin alpha-1 (Homo sapiens, UniProt P56199).
T1 sequence (P56199 whole entry): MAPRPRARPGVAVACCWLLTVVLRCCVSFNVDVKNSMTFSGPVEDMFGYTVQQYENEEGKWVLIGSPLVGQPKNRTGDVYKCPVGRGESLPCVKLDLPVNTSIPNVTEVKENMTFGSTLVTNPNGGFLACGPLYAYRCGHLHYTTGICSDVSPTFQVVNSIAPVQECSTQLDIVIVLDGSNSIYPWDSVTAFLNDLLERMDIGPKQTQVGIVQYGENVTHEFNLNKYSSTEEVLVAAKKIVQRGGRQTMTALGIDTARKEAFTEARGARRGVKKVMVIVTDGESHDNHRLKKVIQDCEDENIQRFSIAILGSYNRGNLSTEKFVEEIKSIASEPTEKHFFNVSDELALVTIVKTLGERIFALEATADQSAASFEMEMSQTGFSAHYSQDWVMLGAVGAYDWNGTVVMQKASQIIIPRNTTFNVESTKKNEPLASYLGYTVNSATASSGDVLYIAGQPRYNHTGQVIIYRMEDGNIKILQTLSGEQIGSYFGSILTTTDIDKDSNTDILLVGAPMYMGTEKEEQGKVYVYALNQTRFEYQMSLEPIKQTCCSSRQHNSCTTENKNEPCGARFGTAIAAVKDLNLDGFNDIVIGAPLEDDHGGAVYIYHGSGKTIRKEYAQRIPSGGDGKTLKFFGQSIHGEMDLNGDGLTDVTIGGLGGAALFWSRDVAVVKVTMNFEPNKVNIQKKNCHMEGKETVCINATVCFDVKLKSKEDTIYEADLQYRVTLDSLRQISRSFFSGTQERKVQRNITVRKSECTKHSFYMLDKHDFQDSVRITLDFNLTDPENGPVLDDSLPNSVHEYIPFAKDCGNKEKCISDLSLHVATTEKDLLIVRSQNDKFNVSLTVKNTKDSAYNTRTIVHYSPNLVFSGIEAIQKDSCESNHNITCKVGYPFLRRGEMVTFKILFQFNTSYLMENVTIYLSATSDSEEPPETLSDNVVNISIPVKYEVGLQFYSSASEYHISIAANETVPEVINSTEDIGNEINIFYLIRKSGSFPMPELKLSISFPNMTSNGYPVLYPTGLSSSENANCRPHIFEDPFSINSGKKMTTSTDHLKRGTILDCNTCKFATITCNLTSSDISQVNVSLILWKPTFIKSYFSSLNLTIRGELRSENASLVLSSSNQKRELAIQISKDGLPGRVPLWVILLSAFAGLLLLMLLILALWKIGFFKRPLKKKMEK
The experiment in a line: Inhibition of human alpha1 integrin expressed in CHO cells binding to collagen I after 2 hrs by cell-adhesion-based WST-1 assay.

A short description of data set [6]: Lipophilicity, log P of the compound. The format is physicochemical. The settings on record: octanol/water.
Data set [7] deals with Integrin alpha2/beta1 (Homo sapiens, UniProt P05556+P17301). The data set can be described thus: Binding affinity to alpha2beta1 integrin (unknown origin). The format is protein-complex assay.
Chain of Integrin alpha2/beta1 (P05556 whole entry): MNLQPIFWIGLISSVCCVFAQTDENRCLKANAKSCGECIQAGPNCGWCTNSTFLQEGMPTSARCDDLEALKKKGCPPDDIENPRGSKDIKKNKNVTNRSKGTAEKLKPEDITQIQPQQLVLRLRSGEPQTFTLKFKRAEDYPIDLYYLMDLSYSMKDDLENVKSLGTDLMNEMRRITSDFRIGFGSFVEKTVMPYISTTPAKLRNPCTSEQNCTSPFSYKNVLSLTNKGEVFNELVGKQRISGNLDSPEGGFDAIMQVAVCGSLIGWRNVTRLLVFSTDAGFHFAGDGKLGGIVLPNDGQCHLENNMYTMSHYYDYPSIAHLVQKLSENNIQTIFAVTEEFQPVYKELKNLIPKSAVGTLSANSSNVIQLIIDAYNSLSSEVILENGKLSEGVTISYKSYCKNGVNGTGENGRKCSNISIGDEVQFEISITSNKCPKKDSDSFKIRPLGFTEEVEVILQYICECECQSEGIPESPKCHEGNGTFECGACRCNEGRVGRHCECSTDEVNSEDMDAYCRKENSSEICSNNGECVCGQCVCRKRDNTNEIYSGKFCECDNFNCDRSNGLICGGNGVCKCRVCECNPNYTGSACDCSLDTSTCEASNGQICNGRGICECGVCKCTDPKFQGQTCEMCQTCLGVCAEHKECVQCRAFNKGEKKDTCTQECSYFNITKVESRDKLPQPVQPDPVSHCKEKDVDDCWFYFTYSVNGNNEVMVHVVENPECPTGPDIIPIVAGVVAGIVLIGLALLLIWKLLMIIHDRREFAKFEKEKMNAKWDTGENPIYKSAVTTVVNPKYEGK
Chain of Integrin alpha2/beta1 (P17301 whole entry): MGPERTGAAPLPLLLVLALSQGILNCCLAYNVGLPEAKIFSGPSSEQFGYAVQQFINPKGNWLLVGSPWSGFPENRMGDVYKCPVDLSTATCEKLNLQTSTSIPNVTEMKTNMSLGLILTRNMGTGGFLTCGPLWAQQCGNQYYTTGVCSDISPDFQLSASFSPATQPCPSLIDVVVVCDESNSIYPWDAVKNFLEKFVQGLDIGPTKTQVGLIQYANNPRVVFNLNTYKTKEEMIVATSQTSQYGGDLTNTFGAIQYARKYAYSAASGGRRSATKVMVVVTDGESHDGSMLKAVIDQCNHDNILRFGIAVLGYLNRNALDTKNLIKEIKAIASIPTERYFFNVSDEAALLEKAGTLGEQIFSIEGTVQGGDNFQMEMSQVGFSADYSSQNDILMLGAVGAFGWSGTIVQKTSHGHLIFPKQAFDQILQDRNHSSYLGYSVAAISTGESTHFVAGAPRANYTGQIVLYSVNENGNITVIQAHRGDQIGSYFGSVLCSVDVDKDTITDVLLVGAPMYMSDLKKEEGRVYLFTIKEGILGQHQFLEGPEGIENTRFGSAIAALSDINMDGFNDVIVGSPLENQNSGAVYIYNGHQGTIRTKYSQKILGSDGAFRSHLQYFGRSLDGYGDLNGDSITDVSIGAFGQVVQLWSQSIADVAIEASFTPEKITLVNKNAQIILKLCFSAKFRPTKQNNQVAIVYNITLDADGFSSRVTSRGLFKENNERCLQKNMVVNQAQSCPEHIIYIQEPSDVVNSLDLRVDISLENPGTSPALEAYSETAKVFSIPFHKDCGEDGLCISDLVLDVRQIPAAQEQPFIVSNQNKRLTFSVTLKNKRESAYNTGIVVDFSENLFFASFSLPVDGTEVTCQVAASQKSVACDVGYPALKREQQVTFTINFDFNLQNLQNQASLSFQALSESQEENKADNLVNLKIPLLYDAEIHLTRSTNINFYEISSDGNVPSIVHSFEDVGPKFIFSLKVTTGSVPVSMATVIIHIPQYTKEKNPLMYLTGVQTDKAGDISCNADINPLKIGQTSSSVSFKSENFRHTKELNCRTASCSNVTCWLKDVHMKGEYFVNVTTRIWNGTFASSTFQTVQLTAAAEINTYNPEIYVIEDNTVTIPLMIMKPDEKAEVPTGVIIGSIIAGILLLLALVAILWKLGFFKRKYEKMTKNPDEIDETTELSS

The inhibition is the change of the read-out against control, counted positive when it falls. Low values mean a response near the control, high ones a response far below the control. As for `O=C(c1ccccc1)c1ccc(NS(=O)(=O)c2ccc(I)cc2)cc1`, the inhibition in data set [1] worked out at 85%. Further, the Imax in data set [2] amounted to 85%. Moreover, the Activity entry in data set [3] is given as “<= 200 uM”. Besides, in data set [4], the Ratio EC50 was 1.3.
For orientation: EC50 means the concentration needed to bring the measured effect to its halfway point. Read a low EC50 as greater potency. For `O=C(c1ccccc1)c1ccc(NS(=O)(=O)c2ccc(Br)cc2)cc1`, the EC50 entry in data set [5] was “Not Active”. The inhibition in data set [1] is 34%. Besides, in data set [2], the Imax was 34%. The Activity entry in data set [3] is recorded as “<= 200 uM”.
For the molecule `Cc1ccc(S(=O)(=O)Nc2cccc(C(=O)c3ccccc3)c2)cc1`, in data set [5], the EC50 result is recorded as “Not Active”. In addition, the inhibition in data set [1] stood at 34%. In addition, the Imax in data set [2] is 34%. For the same molecule, in data set [3], the Activity result is “<= 200 uM”.
Regarding `CC(=O)c1cccc(NS(=O)(=O)c2ccc(Cl)cc2Cl)c1`, the EC50 entry in data set [5] was “Not Active”. In addition, in data set [1], the inhibition is 0%.
Regarding `CN(c1ccc2c(c1)C(=O)c1ccccc1-2)S(=O)(=O)c1ccc(Cl)cc1Cl`, the EC50 entry in data set [5] is “Not Active”. In data set [1], the inhibition turned out to be 0%.
In the case of `CN(c1ccc(C(=O)c2ccccc2)cc1)S(=O)(=O)c1ccc(Cl)cc1Cl`, in data set [5], the concentration giving a half-maximal response (EC50) entry is reported as “Not Active”. This molecule also returned an inhibition in data set [1] of 0%.
By logP is commonly meant a log measure of how a compound divides between an organic and an aqueous phase. High values mean a more lipophilic compound, low ones a more hydrophilic compound. Regarding `O=S(=O)(Nc1ccc2c(c1)Cc1ccccc1-2)c1ccc(Cl)cc1Cl`, the inhibition in data set [1] came to 70%. In data set [2], this molecule displayed an Imax of 87%. Moreover, the Activity entry in data set [3] is listed as “<= 200 uM”. Besides, the Ratio EC50 in data set [4] turned out to be 0.8. The molecule further returned a logP in data set [6] of 4.1.
For the molecule `CN(c1cccc(C(=O)c2ccccc2)c1)S(=O)(=O)c1ccc(Cl)cc1Cl`, the EC50 entry in data set [5] was “Not Active”. Also, the inhibition in data set [1] came to 8%.
For `O=C(c1ccccc1)c1cccc(NS(=O)(=O)c2ccc(Br)cc2)c1`, the inhibition in data set [1] was found to be 92%. In addition, the Imax in data set [2] is 96%. Moreover, in data set [3], the Activity entry is on record as “<= 200 uM”. In addition, the Ratio EC50 in data set [4] was 2.2.
Turning to `Cc1ccc(S(=O)(=O)Nc2ccc(C(=O)c3ccccc3)cc2)cc1`, the EC50 result in data set [5] is reported as “Not Active”. Besides, the inhibition in data set [1] was 35%. In data set [2], this molecule returned an Imax of 35%. In addition, the Activity entry in data set [3] is on record as “<= 200 uM”.
With `O=C(c1ccccc1)c1ccc(OS(=O)(=O)c2cc(Cl)cc(Cl)c2O)cc1`, the inhibition in data set [1] was found to be 86%. In addition, the Imax in data set [2] was determined as 95%. Moreover, in data set [3], the Activity entry is “<= 100 uM”. Also, in data set [4], the Ratio EC50 was 2.8. Besides, the lipophilicity (logP) in data set [6] amounted to 3.1.
In data set [1], `O=C(c1ccccc1)c1cccc(NS(=O)(=O)c2ccc(Cl)cc2Cl)c1` gave an inhibition of 69%. In data set [2], the Imax is 69%. Further, the Activity entry in data set [3] was “<= 200 uM”. The Ratio EC50 in data set [4] turned out to be 3.
Regarding `O=C1c2ccccc2-c2ccc(NS(=O)(=O)c3ccc(Cl)cc3Cl)cc21`, the inhibition in data set [1] worked out at 93%. This molecule displayed an Imax in data set [2] of 93%. For the same molecule, the Activity entry in data set [3] is given as “<= 200 uM”. The Ratio EC50 in data set [4] turned out to be 1.2.
In data set [7], `O=C(c1ccccc1)c1ccc(NS(=O)(=O)c2cccc(-c3ccc(F)cc3)c2)cc1` registered an EC50 of 2000 nM.
For the molecule `O=C(c1ccccc1)c1ccc(NS(=O)(=O)c2ccc(Cl)cc2Cl)cc1`, the inhibition in data set [1] came to 82%. The molecule also displayed an Imax in data set [2] of 82%. The Activity result in data set [3] is “<= 20 uM”. The Ratio EC50 in data set [4] worked out at 1.5. This molecule also showed a log partition coefficient (logP) in data set [6] of 3.5.
Molecule `O=C(c1ccccc1)c1cccc(NS(=O)(=O)c2ccc(I)cc2)c1` had an inhibition in data set [1] of 72%. The Imax in data set [2] was determined as 72%. In addition, the Activity result in data set [3] is given as “<= 200 uM”.
Turning to `O=C(c1ccccc1)c1ccc(NS(=O)(=O)c2ccccc2)cc1`, in data set [5], the EC50 result is reported as “Not Active”. Moreover, the inhibition in data set [1] was found to be 0%. Moreover, the Activity result in data set [3] is given as “<= 200 uM”.
`O=C(c1ccccc1)c1cccc(NS(=O)(=O)c2ccccc2)c1`: the EC50 entry in data set [5] is “Not Active”. In data set [1], this molecule gave an inhibition of 4%. In data set [3], the Activity entry is listed as “<= 200 uM”.
On to `O=C(c1ccccc1)c1ccc(OS(=O)(=O)c2ccc(Cl)cc2Cl)cc1`, for which the concentration giving a half-maximal response (EC50) result in data set [5] is “Not Active”. In data set [1], the inhibition is 0%.

The record behind these values is ChEMBL document CHEMBL3217419, “Blockage of collagen binding to integrin 21: structureactivity relationship of proteinprotein interaction inhibitors” (Medchemcomm, 2011).
